Data: publication PMC7995547, “ω‐Imidazolyl‐alkyl derivatives as new preclinical drug candidates for treating non‐alcoholic steatohepatitis” (Physiological Reports, 2021)
“Also recorded” adds a separate entry of the source.

System: male CD/Crl:CD(SD) rats
Assay: Acute toxicity study, single peroral application, 14‐day observation
Format: in vivo
Details: for Ataxia / Chromodacryorrhea / Dyspnoea / Inhibition of body weight gain / Mean body weight gain, After 7 d / Mean body weight, After 7 d / Mortality within 6 h / Mortality within 24 h / Necropsy findings / Piloerection / Ptosis / Reduced motility / Reduced muscle tone / Mean body weight gain, End / Mean body weight, End / Mean body weight, Start / Mortality within 7 d / Mortality within 14 d: p.o., males, n = 5; for Mean body weight gain, End / Mean body weight, End: 14‐day observation; for Mean body weight, Start: before administration; for Premature deaths in the acute toxicity study: rat, in vivo
Experimental: In total, 90 male CD®/Crl:CD(SD) rats from Charles River Laboratories, Deutschland GmbH, were used after randomization. Five rats were selected for each concentration of the corresponding experimental substance. […] In addition, a control group was formed with five rats receiving only the HPMC gel.
Feeding was stopped approximately 16 h before the start of test substance application, whereas tap water continued to be available ad libitum. Granulated structural wood was used as bedding material in the cages; the material was changed and the cages were cleaned twice a week. […] The rooms were illuminated (approximately 150 lux from a ceiling height of approximately 1.50 m) and darkened for 12 h in turns.
Each animal was kept under observation, so that any behavior deviating from the norm could be systematically recorded. Observations were made before the peroral application of the respective active substance, immediately after, and 5, 15, 30, and 60 min and 3, 6, and 24 h after the start of application. […] We focused on the changes in the skin and fur, the eyes and mucous membranes, respiration, circulation, the autonomous and central nervous systems, somatomotor activity, and behavior patterns. They were also observed for possible tremors, convulsions, salivation, diarrhea, lethargy, sleep, and coma. Mortality checks were performed at least once a day to minimize the loss of animals during the study. The time of death was recorded as accurately as possible. Individual body weights were recorded before the administration of experimental substances and, subsequently, at weekly intervals, until the end of the study and at death. Weight changes were calculated when survival exceeded 1 day.
At the end of the experiments, all surviving animals were sacrificed, dissected, and examined macroscopically. All notable pathological changes were recorded. A microscopic examination of all organs showing obvious lesions was performed on animals that survived for 24 h or longer. Autopsy and macroscopic inspection of prematurely deceased animals were performed as soon as possible after death.

OCCCCCCCCCCCCn1ccnc1 [I‐ol, 12‐imidazolyl‐1‐dodecanol]
Ataxia (10 mg/kg b.w.): None | Chromodacryorrhea (10 mg/kg b.w.): None | Dyspnoea (10 mg/kg b.w.): None | Inhibition of body weight gain (10 mg/kg b.w.): None | Mean body weight gain, After 7 d (10 mg/kg b.w.): +17.0% | Mean body weight, After 7 d (10 mg/kg b.w.): 259.2 g | Mortality within 6 h (10 mg/kg b.w.): 0 | Mortality within 24 h (10 mg/kg b.w.): 0 | Necropsy findings (10 mg/kg b.w.): None | Piloerection (10 mg/kg b.w.): None | Ptosis (10 mg/kg b.w.): None | Reduced motility (10 mg/kg b.w.): None | Reduced muscle tone (10 mg/kg b.w.): None | Mean body weight gain, End (10 mg/kg b.w.): +30.0% | Mean body weight, End (10 mg/kg b.w.): 288.0 g | Mean body weight, Start (10 mg/kg b.w.): 221.6 g | Mortality within 7 d (10 mg/kg bw): 0 | Mortality within 14 d (10 mg/kg bw): 0 | Ataxia (50 mg/kg b.w.): None | Chromodacryorrhea (50 mg/kg b.w.): None | Dyspnoea (50 mg/kg b.w.): None | Inhibition of body weight gain (50 mg/kg b.w.): None | Mean body weight gain, After 7 d (50 mg/kg b.w.): +22.2% | Mean body weight, After 7 d (50 mg/kg b.w.): 278.4 g | Mortality within 6 h (50 mg/kg b.w.): 0 | Mortality within 24 h (50 mg/kg b.w.): 0 | Necropsy findings (50 mg/kg b.w.): None | Piloerection (50 mg/kg b.w.): None | Ptosis (50 mg/kg b.w.): None | Reduced motility (50 mg/kg b.w.): None | Reduced muscle tone (50 mg/kg b.w.): None | Mean body weight gain, End (50 mg/kg b.w.): +36.3% | Mean body weight, End (50 mg/kg b.w.): 310.4 g | Mean body weight, Start (50 mg/kg b.w.): 227.8 g | Mortality within 7 d (50 mg/kg bw): 0 | Mortality within 14 d (50 mg/kg bw): 0 | Ataxia (100 mg/kg b.w.): None | Chromodacryorrhea (100 mg/kg b.w.): None | Dyspnoea (100 mg/kg b.w.): None | Inhibition of body weight gain (100 mg/kg b.w.): None | Mean body weight gain, After 7 d (100 mg/kg b.w.): +18.5% | Mean body weight, After 7 d (100 mg/kg b.w.): 272.6 g | Mortality within 6 h (100 mg/kg b.w.): 0 | Mortality within 24 h (100 mg/kg b.w.): 0 | Necropsy findings (100 mg/kg b.w.): None | Piloerection (100 mg/kg b.w.): None | Ptosis (100 mg/kg b.w.): None | Reduced motility (100 mg/kg b.w.): None | Reduced muscle tone (100 mg/kg b.w.): None | Mean body weight gain, End (100 mg/kg b.w.): +33.0% | Mean body weight, End (100 mg/kg b.w.): 305.8 g | Mean body weight, Start (100 mg/kg b.w.): 230.0 g | Mortality within 7 d (100 mg/kg bw): 0 | Mortality within 14 d (100 mg/kg bw): 0 | Ataxia (250 mg/kg b.w.): None | Chromodacryorrhea (250 mg/kg b.w.): None | Dyspnoea (250 mg/kg b.w.): None | Inhibition of body weight gain (250 mg/kg b.w.): None | Mean body weight gain, After 7 d (250 mg/kg b.w.): +19.6% | Mean body weight, After 7 d (250 mg/kg b.w.): 266.8 g | Mortality within 6 h (250 mg/kg b.w.): 0 | Mortality within 24 h (250 mg/kg b.w.): 0 | Necropsy findings (250 mg/kg b.w.): None | Piloerection (250 mg/kg b.w.): None | Ptosis (250 mg/kg b.w.): None | Reduced motility (250 mg/kg b.w.): None | Reduced muscle tone (250 mg/kg b.w.): None | Mean body weight gain, End (250 mg/kg b.w.): +34.2% | Mean body weight, End (250 mg/kg b.w.): 299.2 g | Mean body weight, Start (250 mg/kg b.w.): 223.0 g | Toxic signs (250 mg/kg bw): None | Mortality within 7 d (250 mg/kg bw): 0 | Mortality within 14 d (250 mg/kg bw): 0 | Ataxia (500 mg/kg b.w.): None | Chromodacryorrhea (500 mg/kg b.w.): None + | Dyspnoea (500 mg/kg b.w.): None | Inhibition of body weight gain (500 mg/kg b.w.): None | Mean body weight gain, After 7 d (500 mg/kg b.w.): +29.0% | Mean body weight, After 7 d (500 mg/kg b.w.): 294.2 g | Mortality within 6 h (500 mg/kg b.w.): 0 | Mortality within 24 h (500 mg/kg b.w.): 0 | Necropsy findings (500 mg/kg b.w.): None | Ptosis (500 mg/kg b.w.): None | Reduced motility (500 mg/kg b.w.): None | Reduced muscle tone (500 mg/kg b.w.): None | Mean body weight gain, End (500 mg/kg b.w.): +46.6% | Mean body weight, End (500 mg/kg b.w.): 334.2 g | Mean body weight, Start (500 mg/kg b.w.): 228.0 g | Toxic signs (500 mg/kg bw): None | Mortality within 7 d (500 mg/kg bw): 0 | Mortality within 14 d (500 mg/kg bw): 0 | Chromodacryorrhea (1000 mg/kg b.w.): None | Inhibition of body weight gain (1000 mg/kg b.w.): None | Mean body weight gain, After 7 d (1000 mg/kg b.w.): +22.4% | Mean body weight, After 7 d (1000 mg/kg b.w.): 271.2 g | Mortality within 6 h (1000 mg/kg b.w.): 0 | Mortality within 24 h (1000 mg/kg b.w.): 0 | Necropsy findings (1000 mg/kg b.w.): None | Piloerection (1000 mg/kg b.w.): None | Ptosis (1000 mg/kg b.w.): None | Mean body weight gain, End (1000 mg/kg b.w.): +36.6% | Mean body weight, End (1000 mg/kg b.w.): 302.6 g | Mean body weight, Start (1000 mg/kg b.w.): 221.6 g | Toxic signs (1000 mg/kg bw): reduced motility was observed, with reduced muscle tone, ataxia, and dyspnea; also recorded: Reduced motility and muscle tone, ataxia, dyspnoea | Mortality within 7 d (1000 mg/kg bw): 0 | Mortality within 14 d (1000 mg/kg bw): 0 | Macroscopic necropsy findings (all doses): None | Premature deaths in the acute toxicity study (male, CD/Crl:CD(SD), 14 days): None of the 30 rats died | Premature deaths in the acute toxicity study: did not lead to any death | Dose up to which no acute toxicity was shown (rats, single p.o. dose): 1000 mg/kg b.w. | Lowest lethal dose (rats, single p.o. dose): >1000 mg/kg bw | No Observed Adverse Effect Level (rats, single p.o. dose): 500 mg/kg bw | LD50(14 d) (rats, single p.o. dose, 14 days): >1000 mg/kg bw
